Assay results as given in patent US20040191842A1, “Chemopreventive and therapeutic aspects of polyphenolic compositions and assays” (Medical College of Georgia Research Institute, Inc., priority 2002, published 2004).
Entries after “also recorded” stand apart in the source; their conditions may differ.

Key:
[1] = tested on: salivary acenar cells (AC) and duct cells (DC), HSG and OSC tumor cells; test: Protection of salivary gland cells from CDDP and UVC (SDH, BrdU); conditions: pretreatment of EGCG
Text: Human immortalized salivary acenar cells (AC) and duct cells (DC), along with human salivary gland tumor cells (HSG, a radiation-resistant cell line) and oral squamous carcinoma cells (OSC) were either treated by CDDP or irradiated by UVC with or without the presence of EGCG, followed by determination of the mitochondrial succinate dehydrogenase (SDH) activity, a measurement of mitochondrial damage and BrdU incorporation determination.

OSC-2 cells = test: Intracellular ROS levels (DFDA assay), OSC-2 cells; assay type: cell-based, human
Method: (§1) Measurement of intracellular ROS levels. The ROS assay measures the accumulation of intracellular ROS levels. The non-fluorescent dye DFDA passively diffuses into cells, where the acetates are cleaved by intracellular esterases. […] Thus, values of the fluorescence in the cell cultures are constantly rising in this assay. Cells (1.5×10^4 cells/well) were incubated with Hallam's physiological saline (HPS) containing DFDA (10 μM) in a 96-well microplate for 30 minutes at 37° C. After the incubation, cells were washed three times with HPS and then incubated with HPS containing EGCG (15-200 μM) or diamide (5 mM) for the indicated time periods. The intracellular ROS levels were measured by using a fluorescence plate reader (BIO-TEK FL600, Bio-Tek Instruments, Inc., Winooski, Vt.), at an excitation wavelength of 485 nm and an emission wavelength of 530 nm.
as §1, with “assay (DFDA assay)” for “assay”, “dye dichlorofluorescein diacetate (DFDA)” for “dye DFDA”, “this assay due to the accumulation of ROS.” for “this assay.”, “EGCG (50-200” for “EGCG (15-200”, “indicated times.” for “indicated time periods.”

[2] = as stated in Example 9; read-out: Cmax in the plasma; cited from earlier work
caspase 3 = test: Caspase 3 activity assay, normal human epidermal keratinocytes; assay type: cell-based; conditions: EGCG 0 to 200 μM or 0.2 mg/ml GTPPs, 24 h
Method: (§2) Caspase 3 activity assay. The Caspase 3 Apoptosis Detection Kit was purchased from Santa Cruz Biotech. Inc. In a 24 well tissue culture plate, 10^5 cells/well of control or treated cells in triplicates were plated. […] To each well, 100 μl of 2×reaction buffer was added with 10 mM DTT. Finally, 5 μl of DEVD-AFC substrate was added to each well containing cell lysates. The reaction mixtures were incubated for 1 hour at 37° C. The caspase 3 activity in each well was measured using a fluorescence plate reader set for 405 nanometer (nm) excitation and 505 nm emission.
as §2, with “of” for “of control or treated”, “[…]” for “10 mM”, “fluorescence microplate” for “fluorescence plate”, “405 nm” for “405 nanometer (nm)”
Caspase 3 activity assay. […] The reaction mixtures were incubated for 1 hour at 37° C., and caspase 3 activity in each well was measured using a fluorescence micro-plate reader at a wavelength of 405 nm for excitation and 505 nm for emission.

For O=C(O[C@@H]1Cc2c(O)cc(O)cc2O[C@@H]1c1cc(O)c(O)c(O)c1)c1cc(O)c(O)c(O)c1 [EGCG, (−)-epigallocatechin-3-gallate], the “protection from CDDP and UVC cytotoxicity” value [1] was “significantly protected the normal salivary gland cells from CDDP and UVC, but not the tumor cells”, the “intracellular ROS levels vs controls” value (OSC-2 cells; 50 μM EGCG, 60 minute exposure) was “remained comparable to the controls” and the “intracellular ROS levels vs control” value (OSC-2 cells; 50 or 200 μM EGCG, beyond 120 minutes) was “remained significantly higher than the control levels”. The “H2O2 concentration producing ROS equivalent to 200 μM EGCG” value (OSC-2 cells; first hour) was 50 µM, the Cmax [2] was 10 µM and the “caspase 3 activity” value (caspase 3) was “only exhibited basal levels of caspase 3 activities; also recorded: not significantly affected”.
